target: MLL1-WDR5 protein-protein interaction (Homo sapiens (Human), UniProt P61964); test: WDR5 TR-FRET assay (MLL1-WDR5 PPI inhibition); format: binding; conditions: 5 nM WDR5 protein, 10 nM peptide, read-out: IC50 (nM), MLL1-WDR5 PPI inhibitory activity
Experimental: WDR5 TR-FRET Assay Procedure: Stock compounds were transferred to the assay plate by Echo Liquid Handler. […] Stock compounds were incubated with WDR5 protein for 30 min at room temperature. Plates were covered, protected from light and incubated for 60 min at room temperature, after adding the peptide and Tb-Ab. EnVision Multimode Plate Reader (PerkinElmer) was used for the TR-FRET assay with excitation wavelength at 340 nm and emission wavelength at 495 and 520 nm. The ratio of the 520/495 wavelengths were used to assess the degree of the FRET signal. IC50 was calculated by fitting the inhibition data using XLfit software to sigmoidal dose-response model.

Row | Compound | IC50
1 | CN1CCN(c2ccc(-n3cc(C(=O)NCCCN4CCOCC4)nn3)cc2NC(=O)c2ccc(Cl)cc2C(F)(F)F)CC1 [Example 46, 1-(3-(4-chloro-2-(trifluoromethyl)benzamido)-4-(4-methylpiperazin-1-yl)phenyl)-N-(3-morpholinopropyl)-1H-1,2,3-triazole-4-carboxamide] | 458 nM
2 | CN1CCN(c2ccc(-n3cc(C(=O)NCCCN4CCOCC4)nn3)cc2NC(=O)c2cnc(S(C)(=O)=O)cc2C(F)(F)F)CC1 [Example 15, N-[2-(4-methylpiperazin-1-yl)-5-[4-(3-morpholinopropylcarbamoyl)triazol-1-yl]phenyl]-6-methylsulfonyl-4-(trifluoromethyl)pyridine-3-carboxamide] | > 10000 nM
3 | CN1CCN(c2cc(F)c(-n3cc(C(=O)NCCCN4CCOCC4)nn3)cc2NC(=O)c2c[nH]c(=O)cc2C(F)(F)F)CC1 [Example 8, N-(4-fluoro-2-(4-methylpiperazin-1-yl)-5-(4-((3-morpholinopropyl)carbamoyl)-1H-1,2,3-triazol-1-yl)phenyl)-6-oxo-4-(trifluoromethyl)-1,6-dihydropyridine-3-carboxamide] | 21.2 nM
4 | CN1CCN(c2ccc(-n3cc(C(=O)NCCCN4CCOCC4)nn3)cc2NC(=O)c2nnc(Cl)cc2N)CC1 [Example 33, 4-amino-6-chloro-N-(2-(4-methylpiperazin-1-yl)-5-(4-((3-morpholinopropyl)carbamoyl)-1H-1,2,3-triazol-1-yl)phenyl)pyridazine-3-carboxamide] | > 10000 nM
5 | CCOc1ncc(C(=O)Nc2cc(-n3cc(C(=O)NCCCN4CCOCC4)nn3)ccc2N2CCN(C)CC2)c(C(F)(F)F)n1 [Example 29, 2-ethoxy-N-(2-(4-methylpiperazin-1-yl)-5-(4-((3-morpholinopropyl)carbamoyl)-1H-1,2,3-triazol-1-yl)phenyl)-4-(trifluoromethyl)pyrimidine-5-carboxamide] | > 10000 nM
6 | Cc1cc(F)ncc1C(=O)Nc1cc(-n2cc(C(=O)NCCCN3CCOCC3)nn2)ccc1N1CCN(C)CC1 [Example 25, 6-fluoro-4-methyl-N-(2-(4-methylpiperazin-1-yl)-5-(4-((3-morpholinopropyl)carbamoyl)-1H-1,2,3-triazol-1-yl)phenyl)nicotinamide] | > 10000 nM
7 | Cc1cc(Cl)c(C(=O)Nc2cc(-n3cc(C(=O)NCCCN4CCOCC4)nn3)ccc2N2CCN(C)CC2)cc1[N+](=O)[O-] [Example 48, 1-[3-[(2-chloro-4-methyl-5-nitro-benzoyl)amino]-4-(4-methylpiperazin-1-yl)phenyl]-N-(3-morpholinopropyl)triazole-4-carboxamide] | > 10000 nM
8 | CN1CCN(c2ccc(-n3cc(C(=O)NCCCN4CCOCC4)nn3)cc2NC(=O)c2cc(C(F)(F)F)cc(C(F)(F)F)c2)CC1 [Example 47, 1-(3-(3,5-bis(trifluoromethyl)benzamido)-4-(4-methylpiperazin-1-yl)phenyl)-N-(3-morpholinopropyl)-1H-1,2,3-triazole-4-carboxamide] | 3520 nM
9 | Cc1cc(C(F)(F)F)ncc1C(=O)Nc1cc(-n2cc(C(=O)NCCCN3CCOCC3)nn2)ccc1N1CCN(C)CC1 [Example 31, 4-methyl-N-(2-(4-methylpiperazin-1-yl)-5-(4-((3-morpholinopropyl)carbamoyl)-1H-1,2,3-triazol-1-yl)phenyl)-6-(trifluoromethyl)nicotinamide] | > 10000 nM
10 | CSc1cc(C(F)(F)F)c(C(=O)Nc2cc(-n3cc(C(=O)NCCCN4CCOCC4)nn3)ccc2N2CCN(C)CC2)cn1 [Example 14, N-[2-(4-methylpiperazin-1-yl)-5-[4-(3-morpholinopropylcarbamoyl)triazol-1-yl]phenyl]-6-methylsulfanyl-4-(trifluoromethyl)pyridine-3-carboxamide] | > 10000 nM
11 | CN1CCN(c2cc(F)c(-n3cc(C(=O)NCCCN4CCOCC4)nn3)cc2NC(=O)c2cnc(Cl)cc2C(F)(F)F)CC1 [Example 7, 6-chloro-N-(4-fluoro-2-(4-methylpiperazin-1-yl)-5-(4-((3-morpholinopropyl)carbamoyl)-1H-1,2,3-triazol-1-yl)phenyl)-4-(trifluoromethyl)nicotinamide] | > 10000 nM
12 | C[C@H]1CN(c2ccc(-n3cc(C(=O)NCCCN4CCOCC4)nn3)cc2NC(=O)c2cnc(Cl)cc2C(F)(F)F)CCN1C [Example 9, (S)-6-chloro-N-(2-(3,4-dimethylpiperazin-1-yl)-5-(4-((3-morpholinopropyl)carbamoyl)-1H-1,2,3-triazol-1-yl)phenyl)-4-(trifluoromethyl)nicotinamide] | > 10000 nM
13 | CCOc1cc(C(F)(F)F)c(C(=O)Nc2cc(-n3cc(C(=O)NCCCN4CCOCC4)nn3)ccc2N2CCN(C)CC2)cn1 [Example 17, 6-ethoxy-N-(2-(4-methylpiperazin-1-yl)-5-(4-((3-morpholinopropyl)carbamoyl)-1H-1,2,3-triazol-1-yl)phenyl)-4-(trifluoromethyl)nicotinamide] | > 10000 nM
14 | COc1cnc(C(=O)Nc2cc(-n3cc(C(=O)NCCCN4CCOCC4)nn3)ccc2N2CCN(C)CC2)c(OC)n1 [Example 36, 3,5-dimethoxy-N-(2-(4-methylpiperazin-1-yl)-5-(4-((3-morpholinopropyl)carbamoyl)-1H-1,2,3-triazol-1-yl)phenyl)pyrazine-2-carboxamide] | > 10000 nM
15 | C[C@@H]1CN(c2cc(F)c(-n3cc(C(=O)N4CCN(C)CC4)nn3)cc2NC(=O)c2cnc(Cl)cc2Cl)C[C@H](C)N1C [Example 57, 4,6-dichloro-N-(4-fluoro-5-(4-(4-methylpiperazine-1-carbonyl)-1H-1,2,3-triazol-1-yl)-2-((3S,5R)-3,4,5-trimethylpiperazin-1-yl)phenyl)nicotinamide] | 2170 nM
16 | CN1CCN(c2ccc(-n3cc(C(=O)NCCCN4CCOCC4)nn3)cc2NC(=O)c2ccc(C#N)nc2C(F)(F)F)CC1 [Example 39, 6-cyano-N-[2-(4-methylpiperazin-1-yl)-5-[4-(3-morpholinopropylcarbamoyl)triazol-1-yl]phenyl]-2-(trifluoromethyl)pyridine-3-carboxamide] | 1150 nM
17 | CN1CCN(c2ccc(-n3cc(C(=O)NCCCN4CCOCC4)nn3)cc2NC(=O)c2cnc(Cl)cc2N)CC1 [Example 22, 4-amino-6-chloro-N-(2-(4-methylpiperazin-1-yl)-5-(4-((3-morpholinopropyl)carbamoyl)-1H-1,2,3-triazol-1-yl)phenyl)nicotinamide] | > 10000 nM
18 | CN1CCN(c2ccc(-n3cc(C(=O)NCCCN4CCOCC4)nn3)cc2NC(=O)c2cnc(C#N)cc2C(F)(F)F)CC1 [Example 13, 6-cyano-N-[2-(4-methylpiperazin-1-yl)-5-[4-(3-morpholinopropylcarbamoyl)triazol-1-yl]phenyl]-4-(trifluoromethyl)pyridine-3-carboxamide] | > 10000 nM
19 | Cc1c(Cl)ncc(C(=O)Nc2cc(-n3cc(C(=O)NCCCN4CCOCC4)nn3)c(F)cc2N2C[C@@H](C)N(C)[C@@H](C)C2)c1Cl [Example 59, 4,6-dichloro-N-[4-fluoro-5-[4-(3-morpholinopropylcarbamoyl)triazol-1-yl]-2-[(3R,5S)-3,4,5-trimethylpiperazin-1-yl]phenyl]-5-methyl-pyridine-3-carboxamide] | > 10000 nM
20 | CN1CCN(c2ccc(-n3cc(C(=O)NCCCN4CCOCC4)nn3)cc2NC(=O)c2c[nH]c(=O)cc2C(F)(F)F)CC1 [Example 4] | 51.3 nM
21 | C[C@@H]1CN(c2cc(F)c(-n3cc(C(=O)N4CCN(C)CC4)nn3)cc2NC(=O)c2cnc(Cl)cc2C(F)(F)F)C[C@H](C)N1C [Example 51, 6-chloro-N-(4-fluoro-5-(4-(4-methylpiperazine-1-carbonyl)-1H-1,2,3-triazol-1-yl)-2-((3S,5R)-3,4,5-trimethylpiperazin-1-yl)phenyl)-4-(trifluoromethyl)nicotinamide] | 326 nM
22 | COc1nc(SC)ncc1C(=O)Nc1cc(-n2cc(C(=O)NCCCN3CCOCC3)nn2)ccc1N1CCN(C)CC1 [Example 30, 4-methoxy-N-(2-(4-methylpiperazin-1-yl)-5-(4-((3-morpholinopropyl)carbamoyl)-1H-1,2,3-triazol-1-yl)phenyl)-2-(methylthio)pyrimidine-5-carboxamide] | > 10000 nM
23 | C[C@@H]1CN(c2cc(F)c(-n3cc(C(=O)NC4CCN(C)CC4)nn3)cc2NC(=O)c2cnc(Cl)cc2C(F)(F)F)C[C@H](C)N1C [Example 52, 6-chloro-N-(4-fluoro-5-(4-((1-methylpiperidin-4-yl)carbamoyl)-1H-1,2,3-triazol-1-yl)-2-((3S,5R)-3,4,5-trimethylpiperazin-1-yl)phenyl)-4-(trifluoromethyl)nicotinamide] | 287 nM
24 | CN1CCN(c2ccc(-n3cc(C(=O)NCCCN4CCOCC4)nn3)cc2NC(=O)c2cnc(Cl)cc2Cl)CC1 [Example 19, 4,6-dichloro-N-[2-(4-methylpiperazin-1-yl)-5-[4-(3-morpholinopropylcarbamoyl)triazol-1-yl]phenyl]pyridine-3-carboxamide] | > 10000 nM
25 | CN1CCN(c2ccc(-n3cc(C(=O)NCCCN4CCOCC4)nn3)cc2NC(=O)c2ncc(Cl)nc2Cl)CC1 [Example 34, 3,5-dichloro-N-[2-(4-methylpiperazin-1-yl)-5-[4-(3-morpholinopropylcarbamoyl)triazol-1-yl]phenyl]pyrazine-2-carboxamide] | > 10000 nM
26 | C[C@H]1CN(c2ccc(-n3cc(C(=O)NCCCN4CCOCC4)nn3)cc2NC(=O)c2c[nH]c(=O)cc2C(F)(F)F)CCN1C [Example 10, (S)-N-(2-(3,4-dimethylpiperazin-1-yl)-5-(4-((3-morpholinopropyl)carbamoyl)-1H-1,2,3-triazol-1-yl)phenyl)-6-oxo-4-(trifluoromethyl)-1,6-dihydropyridine-3-carboxamide] | 9.12 nM
